# PMC10817493, “p-Terphenyl and Diphenyl Ether Derivatives from the Marine-Derived Fungus Aspergillus candidus HM5-4” (Marine Drugs, 2023)
# Legend:
# [1] = test system: human liver cancer cells (BEL-7402); test: Cytotoxic assay (modified MTT), BEL-7402; type: cell-based; settings: mean ± SD of three parallel experiments
# Method: (§1) All the compounds mentioned above were tested for their cytotoxic activities against human myeloid leukemia cells (K562), human liver cancer cells (BEL-7402), human gastric cancer cells (SGC-7901), human non-small cell lung cancer cells (A549) and human HeLa cervical cancer cells. […] Compared to the cytotoxic activity of 7, the cytotoxic activity of 5 was much stronger.
# (§2) All above-mentioned compounds were evaluated for their cytotoxicity in five human tumor cell lines: K562, BEL-7402, SGC-7901, A549 and HeLa cells which were bought from the Cell Bank of Type Culture Collection of the Shanghai Institute of Cell Biology, Chinese Academy of Sciences, using modified MTT methods. The details of this are described in our previous paper. The positive control was cisplatin.
# [2] = test system: human non-small cell lung cancer cells (A549); test: Cytotoxic assay (modified MTT), A549; type: cell-based; settings: mean ± SD of three parallel experiments
# Method: as §1, §2
# [3] = test system: human HeLa cervical cancer cells; test: Cytotoxic assay (modified MTT), HeLa; type: cell-based; settings: mean ± SD of three parallel experiments
# Method: as §1, §2
# [4] = test system: human gastric cancer cells (SGC-7901); test: Cytotoxic assay (modified MTT), SGC-7901; type: cell-based; settings: mean ± SD of three parallel experiments
# Method: as §1, §2
# [5] = test system: human myeloid leukemia cells (K562); test: Cytotoxic assay (modified MTT), K562; type: cell-based; settings: mean ± SD of three parallel experiments
# Method: as §1, §2
# [6] = target: α-glucosidase (Saccharomyces cerevisiae, UniProt P53341); test: α-Glucosidase inhibition assay (PNPG substrate); type: biochemical
# Method: All abovementioned compounds were measured for their inhibitory effects against α-glucosidase, using PNPG as the substrate. The enzyme inhibitory assay was carried out by a formerly described method, with some modifications. Compounds were dissolved in DMSO and six concentration gradients were set in turn. All the assays were performed in 0.1 M sodium phosphate buffer (PH = 6.8). The 10 μL sample was mixed with 100 μL α-glucosidase solution (0.2 U/mL, Sigma, Kanagawa, Japan) and shaken well, then added to a 96-well plate and incubated at 37 °C for 15 min. Subsequently, 40 μL of 2.5 mM 4-nitrophenyl-α-D-glucopyranoside was added and further incubated at 37 °C for 15 min. DMSO was used as a control and the blank wells contained buffer in place of substrate. The OD values were tested at 405 nm with a microplate reader. […] The percentage inhibition was calculated by the following equation:% inhibition = ((ODcontrol − ODsample)/(ODcontrol − ODblank)) × 100
# [7] = test system: K562, BEL-7402, SGC-7901, A549 and HeLa cells; test: Cytotoxic activity, summary over five human tumor cell lines; type: cell-based; settings: range over compounds 5 and 7 and K562, BEL-7402, SGC-7901, A549, HeLa, read-out: IC50 values, range over the five cancer cell lines
# Excerpt: Two undescribed p-terphenyl derivatives, asperterphenylcins A–B (1–2), and two undescribed diphenyl ether derivatives, asperdiphenylcins A–B (3–4), together with three previously described p-terphenyl derivatives—4″-deoxyterprenin (5), terphenyllin (6), and 3″-hydroxyterphenyllin (7)—were obtained from the solid-rice culture of the marine-derived fungus Aspergillus candidus HM5-4, which was isolated from sponges from the South China Sea. Their structures were elucidated by HRESIMS data and NMR spectroscopic analysis.
# as §2
# [8] = test system: Neoscytalidium dimidiatum; test: Antifungal activity, filter paper disc agar diffusion method; type: cell-based; settings: includes 6 mm disc, 10.0 µg/disc (carbendazim 10 μL, 1.0 mg/mL), mean ± SD, triplicate
# Method: The antifungal activities of three known compounds (5–7) were determined by the filter paper disc agar diffusion method.
# The inhibitory activities of some compounds against six phytopathogenic fungi (Fusarium oxysporum f. sp. cubense, Colletotrichum gloeosporioides, Thielaviopsis paradoxa, Bipolaris cactivora (Petrak) Alcorn, Neoscytalidium dimidiatum, and Colletotrichum scovillei) were evaluated using the filter paper disc agar diffusion method; 250 μL of the fungal solution was aspirated onto the corresponding solid medium and spread evenly with a cotton swab. Samples were dissolved in MeOH to prepare solutions of 1.0 mg/mL and 3.0 mg/mL concentrations. Carbendazim (10 μL, 1.0 mg/mL) was used as a positive control and MeOH (10 μL) was used as negative control. The diameter of the inhibition zones of the plates cultured at 37 °C for 24 h were measured including the 6 mm disc diameter. Experiments were performed in triplicate.
# [9] = Homo sapiens, Bel-7402, BEL-7402 cells
# [10] = Homo sapiens, SGC-7901, SGC-7901 cells
# Sequence of α-glucosidase (P53341 whole entry): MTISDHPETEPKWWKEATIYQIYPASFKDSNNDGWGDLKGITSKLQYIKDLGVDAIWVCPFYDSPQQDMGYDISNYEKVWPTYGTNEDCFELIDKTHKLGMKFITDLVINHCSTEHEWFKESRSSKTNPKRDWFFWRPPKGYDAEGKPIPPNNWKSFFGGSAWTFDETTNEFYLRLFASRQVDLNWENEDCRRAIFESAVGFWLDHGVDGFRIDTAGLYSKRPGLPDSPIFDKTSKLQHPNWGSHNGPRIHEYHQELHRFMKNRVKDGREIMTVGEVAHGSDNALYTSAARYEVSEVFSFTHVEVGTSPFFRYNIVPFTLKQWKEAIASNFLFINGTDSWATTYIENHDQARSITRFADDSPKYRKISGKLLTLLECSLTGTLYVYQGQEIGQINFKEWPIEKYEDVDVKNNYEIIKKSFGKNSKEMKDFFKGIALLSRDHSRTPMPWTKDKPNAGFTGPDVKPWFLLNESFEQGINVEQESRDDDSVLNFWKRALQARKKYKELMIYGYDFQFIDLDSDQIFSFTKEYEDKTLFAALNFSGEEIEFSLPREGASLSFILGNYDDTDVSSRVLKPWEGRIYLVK
α-glucosidase inhibitory activity (in words) [6],SMILES,"IC50 [1, 9]","IC50 ([2]; Homo sapiens, A549, A549 cells)",IC50 ([3]; Homo sapiens),"IC50 [4, 10]",IC50 ([5]; Homo sapiens),IC50 ([1]; BEL-7402 cells) [µM],IC50 ([2]; A549 cells) [µM],IC50 [3] [µM],IC50 ([4]; SGC-7901 cells) [µM],IC50 [5] [µM],IC50 [7] [µM],diameter of inhibition zone against N. dimidiatum [8] [mm]
,"COc1c(-c2ccc(O)cc2)cc(O)c(-c2ccc(O)cc2)c1OC [Compound 2, Asperterphenylcin B]",> 20 mg/L,> 20 mg/L,> 20 mg/L,> 20 mg/L,> 20 mg/L,,,,,,,
no α-glucosidase inhibitory activity,"COc1cccc2c1C(=O)OCc1cc(COC(C)=O)cc(O)c1O2 [Compound 3, Asperdiphenylcin A]",> 20 mg/L,> 20 mg/L,> 20 mg/L,> 20 mg/L,> 20 mg/L,,,,,,,
,"N.N.[Cl][Pt][Cl] [Cisplatin, cisplatin, reference compound]",,,,,,4.02 ± 0.06,1.93 ± 0.02,11.3 ± 0.15,4.11 ± 0.02,3.08 ± 0.05,,
,"COc1ccc(O)c(-c2c(OC)cc(-c3ccc(O)cc3)c(OC)c2O)c1 [Compound 1, Asperterphenylcin A]",> 20 mg/L,> 20 mg/L,> 20 mg/L,> 20 mg/L,> 20 mg/L,,,,,,,
,"COc1cc(-c2ccc(O)c(O)c2)c(OC)c(O)c1-c1ccc(O)cc1 [Compound 7, 3″-hydroxyterphenyllin]",,,53.6 ± 0.73 µM,,34 ± 0.4 µM,,,,,,3.32 to 60.4,
,"COc1cc(-c2ccc(O)cc2)c(OC)c(O)c1-c1ccc(O)cc1 [Compound 6, terphenyllin]",> 20 mg/L,> 20 mg/L,> 20 mg/L,> 20 mg/L,> 20 mg/L,,,,,,,
,"COC(=O)Nc1nc2ccccc2[nH]1 [Carbendazim, reference compound]",,,,,,,,,,,,55.00 ± 0.82
no α-glucosidase inhibitory activity,"COc1cccc2c1C(=O)OCc1cc(C(=O)O)cc(O)c1O2 [Compound 4, Asperdiphenylcin B]",> 20 mg/L,> 20 mg/L,> 20 mg/L,> 20 mg/L,> 20 mg/L,,,,,,,
completely disappeared,"COc1cc(-c2ccccc2)c(OC)c(O)c1-c1ccc(OCC=C(C)C)c(O)c1 [Compound 5, 4″-deoxyterprenin]",6.69 ± 0.12 µM,3.32 ± 0.1 µM,44.77 ± 0.13 µM,3.67 ± 0.17 µM,15.03 ± 0.14 µM,,,,,,3.32 to 60.4,31.67 ± 2.36
